Test results: patent US11053196B2, “Substituted indoline derivatives as dengue viral replication inhibitors” (JANSSEN PHARMACEUTICALS, INC., priority 2017, dated 2021)
pEC50: −log10 of the molar value.

Assays:
DENV-2 16681 strain = assay: DENV-2 antiviral assay (eGFP-labeled virus in Vero cells); format: cell-based, Dengue virus; settings: DENV-2 16681 eGFP, MOI 0.5, 3 days
Procedure: The antiviral activity of all the compounds of the invention was tested against the DENV-2 16681 strain which was labeled with enhanced green fluorescent protein (eGPF). The culture medium consists of minimal essential medium supplemented with 2% of heat-inactivated fetal calf serum, 0.04% gentamycin (50 mg/mL) and 2 mM of L-glutamine. Vero cells, obtained from ECACC, were suspended in culture medium and 25 μL was added to 384-well plates (2500 cells/well), which already contain the antiviral compounds. Typically, these plates contain a 5-fold serial dilution of 9 dilution steps of the test compound at 200 times the final concentration in 100% DMSO (200 nL). […] Finally, each plate contains wells which are assigned as virus controls (containing cells and virus in the absence of compound), cell controls (containing cells in the absence of virus and compound) and medium controls (containing medium in the absence of cells, virus and compounds). To the wells assigned as medium control, 25 μL of culture medium was added instead of Vero cells. Once the cells are added to the plates, the plates were incubated for 30 minutes at room temperature to allow the cells to distribute evenly within the wells. Next, the plates were incubated in a fully humidified incubator (37° C., 5% CO2) until the next day. Then, DENV-2 strain 16681, labeled with eGFP, was added at a multiplicity of infection (MOI) of 0.5.
Therefore, 15 μL of virus suspension was added to all the wells containing test compound and to the wells assigned as virus control. In parallel, 15 μL of culture medium was added to the medium and cell controls. Next, the plates were incubated for 3 days in a fully humidified incubator (37° C., 5% CO2). At the day of the read out, the eGFP fluorescence was measured using an automated fluorescence microscope at 488 nm (blue laser). Using an in-house LIMS system, inhibition dose response curves for each compound were calculated and the half maximal effective concentration (EC50) was determined. Therefore, the percent inhibition (I) for every test concentration is calculated using the following formula: I=100*(ST−SCC)/(SVC−SCC); ST, SCC and SVC are the amount of eGFP signal in the test compound, cell control and virus control wells, respectively. The EC50 represents the concentration of a compound at which the virus replication is inhibited with 50%, as measured by a 50% reduction of the eGFP fluorescent intensity compared to the virus control. The EC50 is calculated using linear interpolation (Table 1).

DENV-1 strain TC974#666 = assay: Tetravalent RT-qPCR assay, serotype 1; format: cell-based; settings: Dengue virus, DENV1, 72 h; RT-qPCR serotype 1 TC974#666, Vero cells, day 3
Procedure: (§1) The antiviral activity of the compounds of the invention was tested against DENV-1 strain TC974#666 (NCPV), DENV-2 strain 16681, DENV-3 strain H87 (NCPV) and DENV-4 strain H241 (NCPV) in a RT-qPCR assay. Therefore, Vero cells were infected with either DENV-1, or -2, or -3, or -4 in the presence or absence of test compounds. At day 3 post-infection, the cells were lysed and cell lysates were used to prepare cDNA of both a viral target (the 3′UTR of DENV; Table 2) and a cellular reference gene (1-actin, Table 2). Subsequently, a duplex real time PCR was performed on a Lightcycler480 instrument. The generated Cp value is inversely proportional to the amount of RNA expression of these targets. Inhibition of DENV replication by a test compound results in a shift of Cp's for the 3′UTR gene. On the other hand, if a test compound is toxic to the cells, a similar effect on 1-actin expression will be observed. The comparative ΔΔCp method is used to calculate EC50, which is based on the relative gene expression of the target gene (3′UTR) normalized with the cellular housekeeping gene (1-actin). In addition, CC50 values are determined based on the C, values acquired for the housekeeping gene β-actin.
(§2) The culture medium consisted of minimal essential medium supplemented with 2% of heat-inactivated fetal calf serum, 0.04% gentamycin (50 mg/mL) and 2 mM of L-glutamine. Vero cells, obtained from ECACC, were suspended in culture medium and 75 μL/well was added in 96-well plates (10000 cells/well), which already contain the antiviral compounds. […] In addition, each plate contains wells which are assigned as virus controls (containing cells and virus in the absence of compound) and cell controls (containing cells in the absence of virus and compound). Once the cells were added in the plates, the plates were incubated in a fully humidified incubator (37° C., 5% CO2) until the next day. Dengue viruses serotype-1, 2, 3 and 4 were diluted in order to obtain a Cp of ˜22-24 in the assay. Therefore, 25 μL of virus suspension was added to all the wells containing test compound and to the wells assigned as virus control. In parallel, 25 μL of culture medium was added to the cell controls. Next, the plates were incubated for 3 days in a fully humidified incubator (37° C., 5% CO2). After 3 days, the supernatant was removed from the wells and the cells were washed twice with ice-cold PBS (−100 μL). The cell pellets within the 96-well plates were stored at −80° C. for at least 1 day. Next, RNA was extracted using the Cells-to-CT™ lysis kit, according to the manufacturer's guideline (Life Technologies). The cell lysates can be stored at −80° C. or immediately used in the reverse transcription step.
(§3) In preparation of the reverse transcription step, mix A (table 3A) was prepared and 7.57 μL/well was dispensed in a 96-well plate. After addition of 5 μL of the cell lysates, a five minute denaturation step at 75° C. was performed (table 3B). Afterwards, 7.43 μL of mix B was added (table 3C) and the reverse transcription step was initiated (table 3D) to generate cDNA.
(§4) Finally, a RT-qPCR mix was prepared, mix C (table 4A), and 22.02 μL/well was dispensed in 96-well LightCycler qPCR plates to which 3 μL of cDNA was added and the qPCR was performed according to the conditions in table 4B on a LightCycler 480.
(§5) Using the LightCycler software and an in-house LIMS system, dose response curves for each compound were calculated and the half maximal effective concentration (EC50) and the half maximal cytotoxic concentration (CC50) were determined (Tables 5-8).

DENV-2 strain 16681 = assay: Tetravalent RT-qPCR assay, serotype 2; format: cell-based; settings: Dengue virus, DENV2, 72 h; RT-qPCR serotype 2 16681, Vero cells, day 3
Procedure: as §1, §2, §3, §4, §5

DENV-3 strain H87 = assay: Tetravalent RT-qPCR assay, serotype 3; format: cell-based; settings: Dengue virus, DENV3, 72 h; RT-qPCR serotype 3 H87, Vero cells, day 3
Procedure: as §1, §2, §3, §4, §5

DENV-4 strain H241 = assay: Tetravalent RT-qPCR assay, serotype 4; format: cell-based; settings: Dengue virus, DENV4, 72 h; RT-qPCR serotype 4 H241, Vero cells, day 3
Procedure: as §1, §2, §3, §4, §5

Vero cells = settings: African green monkey
[1] = Toxicity in DENV-2 antiviral assay plates (ATPlite cell viability); settings: African green monkey, CC50, Vero cells, same plates as DENV-2 antiviral assay
in vitro [2] = format: cell-based; settings: African green monkey
Procedure: as §1, with “The comparative ΔΔCp method is used to calculate EC50, which is based on the relative gene expression of the target gene (3′UTR) normalized with the cellular housekeeping gene (1-actin).” left out, “β-actin. […]” for “β-actin.”
as §5

in vitro [3] = settings: African green monkey

Q: With `COc1cc(NC(C(=O)N2CCc3ccc(S(F)(F)(F)(F)F)cc32)c2ccc(Cl)cc2)cc(OCCCC(=O)O)c1` (single isomer, unassigned) [Compound 1B, 4-(3-((1-(4-chlorophenyl)-2-oxo-2-(6-(pentafluoro-λ^6-sulfanyl)indolin-1-yl)ethyl)amino)-5-methoxyphenoxy)butanoic acid] as the compound, how does the pEC50 (DENV-2 16681 strain) read?
A: 9.96

Q: And the pEC50 (DENV-1 strain TC974#666)?
A: 10.02

Q: And the pEC50 (DENV-2 strain 16681)?
A: 9.74

Q: And the pEC50 (DENV-3 strain H87)?
A: 8.72

Q: And the pEC50 (DENV-4 strain H241)?
A: 8.02

Q: What about the CC50 (Vero cells) of the same compound?
A: 13000 nM

Q: With `COc1cc(NC(C(=O)N2CCc3c(C)cc(C(F)(F)F)cc32)c2ccc(Cl)cc2)cc(OCCCC(=O)O)c1` (single isomer, unassigned) [Compound 2B, 4-(3-((1-(4-chlorophenyl)-2-(4-methyl-6-(trifluoromethyl)indolin-1-yl)-2-oxoethyl)amino)-5-methoxyphenoxy)butanoic acid] as the compound, how does the pEC50 (DENV-2 16681 strain) read?
A: 10.11

Q: What about the pEC50 (DENV-1 strain TC974#666) of the same compound?
A: 10.04

Q: And the pEC50 (DENV-2 strain 16681)?
A: 10.21

Q: And the pEC50 (DENV-3 strain H87)?
A: 9.07

Q: What about the pEC50 (DENV-4 strain H241) of the same compound?
A: 8.00

Q: And the CC50 (Vero cells)?
A: 14000 nM

Q: With `COc1cc(NC(C(=O)N2CCc3cc(F)c(C(F)(F)F)cc32)c2ccc(Cl)cc2)cc(OCCCC(=O)O)c1` (single isomer, unassigned) [Compound 3A, 4-(3-((1-(4-chlorophenyl)-2-(5-fluoro-6-(trifluoromethyl)indolin-1-yl)-2-oxoethyl)amino)-5-methoxyphenoxy)butanoic acid] as the compound, how does the pEC50 (DENV-2 16681 strain) read?
A: 7.44

Q: What about the CC50 [1] of the same compound?
A: 12000 nM

Q: With `COc1cc(NC(C(=O)N2CCc3cc(F)c(C(F)(F)F)cc32)c2ccc(Cl)cc2)cc(OCCCC(=O)O)c1` (single isomer, unassigned) [Compound 3B, 4-(3-((1-(4-chlorophenyl)-2-(5-fluoro-6-(trifluoromethyl)indolin-1-yl)-2-oxoethyl)amino)-5-methoxyphenoxy)butanoic acid] as the compound, how does the pEC50 (DENV-2 16681 strain) read?
A: 9.92

Q: And the pEC50 (DENV-1 strain TC974#666)?
A: 10.00

Q: What about the pEC50 (DENV-2 strain 16681) of the same compound?
A: 10.02

Q: What about the pEC50 (DENV-3 strain H87) of the same compound?
A: 8.82

Q: What about the pEC50 (DENV-4 strain H241) of the same compound?
A: 7.85

Q: What about the CC50 at 3 days (in vitro [2]) of the same compound?
A: > 2500 nM

Q: What about the CC50 (in vitro [3]) of the same compound?
A: 13000 nM

Q: What does the source list for `COc1cc(NC(C(=O)N2CCc3c(C)cc(OC(F)(F)F)cc32)c2ccc(Cl)cc2)cc(OCCCC(=O)O)c1` (single isomer, unassigned) [Compound 4A, 4-(3-((1-(4-chlorophenyl)-2-(4-methyl-6-(trifluoromethoxy)indolin-1-yl)-2-oxoethyl)amino)-5-methoxyphenoxy)butanoic acid]?
A: pEC50 (DENV-2 16681 strain): 7.96; CC50 [1]: 13000 nM

Q: With `COc1cc(NC(C(=O)N2CCc3c(C)cc(OC(F)(F)F)cc32)c2ccc(Cl)cc2)cc(OCCCC(=O)O)c1` (single isomer, unassigned) [Compound 4B, 4-(3-((1-(4-chlorophenyl)-2-(4-methyl-6-(trifluoromethoxy)indolin-1-yl)-2-oxoethyl)amino)-5-methoxyphenoxy)butanoic acid] as the compound, how does the pEC50 (DENV-2 16681 strain) read?
A: 10.24

Q: And the pEC50 (DENV-1 strain TC974#666)?
A: 9.96

Q: And the pEC50 (DENV-2 strain 16681)?
A: 10.17

Q: What about the pEC50 (DENV-3 strain H87) of the same compound?
A: 9.04

Q: What about the pEC50 (DENV-4 strain H241) of the same compound?
A: 7.92

Q: What about the CC50 (in vitro [3]) of the same compound?
A: 13000 nM

Q: With `COc1cc(NC(C(=O)N2CCc3cc(F)c(OC(F)(F)F)cc32)c2ccc(Cl)cc2)cc(OCCCC(=O)O)c1` (single isomer, unassigned) [Compound 5B, 4-(3-((1-(4-chlorophenyl)-2-(5-fluoro-6-(trifluoromethoxy)indolin-1-yl)-2-oxoethyl)amino)-5-methoxyphenoxy)butanoic acid] as the compound, how does the pEC50 (DENV-2 16681 strain) read?
A: 9.92

Q: What about the pEC50 (DENV-1 strain TC974#666) of the same compound?
A: 9.48

Q: And the pEC50 (DENV-2 strain 16681)?
A: 9.54

Q: And the pEC50 (DENV-3 strain H87)?
A: 8.59

Q: And the pEC50 (DENV-4 strain H241)?
A: 7.70

Q: What about the CC50 (Vero cells) of the same compound?
A: 12000 nM

Q: What does the source list for `[2H]C(Nc1cc(OC)cc(OCCCC(=O)O)c1)(C(=O)N1CCc2ccc(OC(F)(F)F)cc21)c1ccc(Cl)cc1` (single isomer, unassigned) [Compound 7A-D, 4-(3-((1-(4-chlorophenyl)-1-deuterio-2-oxo-2-(6-(trifluoromethoxy)indolin-1-yl)ethyl)amino)-5-methoxyphenoxy)butanoic acid]?
A: pEC50 (DENV-2 16681 strain): 10.00; pEC50 (DENV-1 strain TC974#666): 9.62; pEC50 (DENV-2 strain 16681): 9.80; pEC50 (DENV-3 strain H87): 8.62; pEC50 (DENV-4 strain H241): 7.89; CC50 (in vitro [3]): 12000 nM

Q: What does the source list for `[2H]C(Nc1cc(OC)cc(OCCCC(=O)O)c1)(C(=O)N1CCc2ccc(OC(F)(F)F)cc21)c1ccc(Cl)cc1` (single isomer, unassigned) [Compound 7B-D, 4-(3-((1-(4-chlorophenyl)-1-deuterio-2-oxo-2-(6-(trifluoromethoxy)indolin-1-yl)ethyl)amino)-5-methoxyphenoxy)butanoic acid]?
A: pEC50 (DENV-2 16681 strain): 7.80; CC50 (Vero cells): 9600 nM

Q: With `COc1cc(NC(C(=O)N2CCc3sc(C(F)(F)F)cc32)c2ccc(Cl)cc2)cc(OCCCC(=O)O)c1` (single isomer, unassigned) [Compound 10A, 4-(3-((1-(4-chlorophenyl)-2-oxo-2-(2-(trifluoromethyl)-5,6-dihydro-4H-thieno[3,2-b]pyrrol-4-yl)ethyl)amino)-5-methoxyphenoxy)butanoic acid] as the compound, how does the pEC50 (DENV-2 16681 strain) read?
A: 9.52

Q: What about the pEC50 (DENV-1 strain TC974#666) of the same compound?
A: 9.66

Q: What about the pEC50 (DENV-2 strain 16681) of the same compound?
A: 9.96

Q: What about the pEC50 (DENV-3 strain H87) of the same compound?
A: 8.38

Q: And the pEC50 (DENV-4 strain H241)?
A: 7.52

Q: What about the CC50 (in vitro [3]) of the same compound?
A: 14000 nM

Q: With `COc1cc(NC(C(=O)N2CCc3sc(C(F)(F)F)cc32)c2ccc(Cl)cc2)cc(OCCCC(=O)O)c1` (single isomer, unassigned) [Compound 10B, 4-(3-((1-(4-chlorophenyl)-2-oxo-2-(2-(trifluoromethyl)-5,6-dihydro-4H-thieno[3,2-b]pyrrol-4-yl)ethyl)amino)-5-methoxyphenoxy)butanoic acid] as the compound, how does the pEC50 (DENV-2 16681 strain) read?
A: 7.43

Q: And the CC50 (Vero cells)?
A: 12000 nM
